For 59 molecules, CC50 results are on record in article PMC6792352, “Limited Chemical Structural Diversity Found to Modulate Thyroid Hormone Receptor in the Tox21 Chemical Library” (Environmental Health Perspectives, 2019).

By CC50 is commonly meant the concentration giving 50% cytotoxicity. Low values mean greater toxicity to the cells, high ones lower toxicity to the cells.

Where a name gives a salt, the structure may show the parent alone.

The first data set is described as follows: in vitro. Conditions: rat, gh3-tre-luc cells, AC50 (uM) modified / 1000.
As for `CC(Cc1ccc(C(C)(C)C)cc1)CN1C[C@@H](C)O[C@@H](C)C1` (stereo partly drawn) [(2R,6S)-Fenpropimorph], the CC50 at 24 h is over 90 µM.

Take `CC[C@H](C)[C@@H](C(=O)O)n1sc2ccccc2c1=O` [(2S,3S)-3-Methyl-2-(3-oxo-1,2-benzothiazol-2(3H)-yl)pentanoic acid]: the CC50 at 24 h was over 90 µM.

Consider `CC(C)[C@@H]1CC[C@@H](C)CC1=O` [(2S,5R)-5-Methyl-2-(propan-2-yl)cyclohexanone], for which the CC50 at 24 h was over 90 µM.

The molecule `CC/C=C\C#N` [(2Z)-2-Pentenenitrile] yielded a CC50 at 24 h of over 90 µM.

Turning to `CC(C)=CCC/C(C)=C\CO` [(2Z)-3,7-Dimethylocta-2,6-dien-1-ol], the CC50 at 24 h was over 90 µM.

`CC(C)=CCC/C(C)=C\C#N` [(2Z)-3,7-Dimethylocta-2,6-dienenitrile] returned a CC50 at 24 h of over 90 µM.

For `CCC(=O)O[C@H]1[C@@H](N2CCCCC2)C[C@H]2[C@@H]3CC[C@H]4C[C@H](OC(C)=O)[C@@H](N5CCCCC5)C[C@]4(C)[C@H]3CC[C@@]21C` [(2beta,3alpha,5alpha,16beta,17beta)-3-Acetoxy-2,16-di(1-piperidinyl)androstan-17-yl propionate], the CC50 at 24 h was over 50 µM.

The molecule `Cc1cc(C)n(CO)n1` [(3,5-Dimethyl-1H-pyrazol-1-yl)methanol] showed a CC50 at 24 h of over 90 µM.

Consider `CCO[Si](CCCCl)(OCC)OCC` [(3-Chloropropyl)(triethoxy)silane], for which the CC50 at 24 h was over 90 µM.

Take `CO[Si](CCCCl)(OC)OC` [(3-Chloropropyl)trimethoxysilane]: the CC50 at 24 h was over 90 µM.

In the case of `CCO[Si](CCCN=C=O)(OCC)OCC` [(3-Isocyanatopropyl)triethoxysilane], the CC50 at 24 h was over 90 µM.

`CC/C=C\CCOC(C)=O` [(3Z)-3-Hexenyl acetate] showed a CC50 at 24 h of over 90 µM.

Turning to `CC/C=C\CCOC(=O)C(C)C` [(3Z)-Hex-3-en-1-yl 2-methylpropanoate], the CC50 at 24 h was over 90 µM.

`C/C=C(\C)C(=O)OCC/C=C\CC` [(3Z)-Hex-3-en-1-yl (2E)-2-methylbut-2-enoate] gave a CC50 at 24 h of over 90 µM.

Molecule `CC/C=C\CCOC(=O)c1ccccc1` [(3Z)-Hex-3-en-1-yl benzoate] had a CC50 at 24 h of over 90 µM.

In the case of `CC/C=C\CCOC(=O)CCCCC` [(3Z)-Hex-3-en-1-yl hexanoate], the CC50 at 24 h was over 90 µM.

As for `CC/C=C\CCOC(=O)CC` [(3Z)-Hex-3-en-1-yl propanoate], the CC50 at 24 h is over 90 µM.

`CC1(C)CCC[C@]2(C)[C@H]3CC(=O)O[C@]3(C)CC[C@@H]12` [(3aR)-(+)-Sclareolide] displayed a CC50 at 24 h of 64.9 µM.

In turn, `CC(C)CCC[C@@H](C)[C@H]1CC[C@H]2[C@@H]3CC[C@@H]4C[C@H](O)CC[C@]4(C)[C@H]3CC[C@]12C` [(3alpha,5beta)-Cholestan-3-ol] showed a CC50 at 24 h of over 50 µM.

`CCOC(=O)COc1ccc(C)cc1` [(4-Methylphenoxy) acetic acid ethyl ester]: the CC50 at 24 h is over 90 µM.

`C[C@H]1[C@@H](c2ccccc2)NC(=O)N1C` [(4R,5S)-(-)-1,5-Dimethyl-4-phenyl-2-imidazolidinone] showed a CC50 at 24 h of over 90 µM.

Molecule `CCCCC/C=C\CCC=O` [(4Z)-4-Decenal] had a CC50 at 24 h of over 90 µM.

As to `COC(=O)CC[C@H](N)C(=O)O` [(5)-Methyl L-glutamate], the CC50 at 24 h is over 50 µM.

The molecule `O=C(c1ccccc1)c1cc(Cl)ccc1O` [(5-Chloro-2-hydroxyphenyl)phenylmethanone] came in with a CC50 at 24 h of over 90 µM.

The molecule `CCC1(CO)COCOC1` [(5-Ethyl-1,3-dioxan-5-yl)methanol] had a CC50 at 24 h of over 90 µM.

Molecule `C[C@H](O)[C@H](O)[C@H]1CNc2nc(N)[nH]c(=O)c2N1` [(6R)-Tetrahydrobiopterin dihydrochloride] gave a CC50 at 24 h of over 50 µM.

Molecule `CC/C=C\CCCCCO` [(6Z)-Non-6-en-1-ol] yielded a CC50 at 24 h of over 90 µM.

Regarding `C/C=C\C/C=C/CCCCCCCCOC(C)=O` [(9E,12Z)-9,12-Tetradecadien-1-ol acetate], the CC50 at 24 h was over 90 µM.

`CCCCCCCC/C=C\CCCCCCCC(=O)N(CCO)CCO` [(9Z)-N,N-Bis(2-hydroxyethyl)octadec-9-enamide] showed a CC50 at 24 h of 43.9 µM.

`CCCCCCCC/C=C\CCCCCCCCO` [(9Z)-Octadec-9-en-1-ol] had a CC50 at 24 h of over 90 µM.

With `CCCCCCCC/C=C\CCCCCCCC(N)=O` [(9Z)-Octadec-9-enamide], the CC50 at 24 h is over 90 µM.

With `CCCCCC[C@@H](O)C/C=C\CCCCCCCC(=O)O` [(9Z,12R)-12-Hydroxyoctadec-9-enoic acid], the CC50 at 24 h came to 80.8 µM.

`CCCCCCCC/C=C\CCCCCCCCCCCC(=O)O` [(13Z)-Docos-13-enoic acid] came in with a CC50 at 24 h of over 90 µM.

As for `CCc1cc(OC)c(C[C@H](C)N)cc1OC` [(+)-2,5-Dimethoxy-4-ethylamphetamine hydrochloride], the CC50 at 24 h was determined as 35.7 µM.

Regarding `CC[C@H](C)COC(=O)/C=C/c1ccc(N=Cc2ccc(OC)cc2)cc1` [(+)-2-Methylbutyl-4-methoxybenzyladine-4'-aminocyannate], the CC50 at 24 h is over 90 µM.

`COc1ccc([C@@H]2Sc3ccccc3N(CCN(C)C)C(=O)[C@@H]2OC(C)=O)cc1` [(+)-Diltiazem] showed a CC50 at 24 h of 22.9 µM.

Consider `Clc1ccc([C@@H]2C[C@H]3CC[C@@H]2N3)cn1` [(+)-Epibatidine hydrochloride], for which the cytotoxic concentration (CC50) at 24 h was over 90 µM.

For the molecule `CN[C@@]1(c2ccccc2Cl)CCCCC1=O` [(+)-Ketamine], the CC50 at 24 h is over 50 µM.

Molecule `COc1cc2c3cc1Oc1cc(ccc1O)C[C@@H]1c4c(cc(OC)c(O)c4Oc4ccc(cc4)C[C@@H]3N(C)CC2)CC[N+]1(C)C` [(+)-Tubocurarine chloride hydrochloride] showed a CC50 at 24 h of over 50 µM.

For `Cc1c(O)cc2c(c1C)O[C@](C)(CCC[C@H](C)CCC[C@H](C)CCCC(C)C)CC2` [(+)-gamma-Tocopherol], the CC50 at 24 h was over 50 µM.

`CC1(C)[C@H]2CC[C@]1(C)C(=O)C2=O` [(+)Camphorquinone]: the CC50 at 24 h is over 90 µM.

On to `C[C@H](N)C(=O)c1ccccc1` [(-)- (S)-Cathinone hydrochloride], for which the CC50 at 24 h was over 50 µM.

The molecule `CC1(C)CCC[C@]2(C)[C@H]3CCO[C@]3(C)CC[C@@H]12` [(-)-Ambroxide] yielded a CC50 at 24 h of over 90 µM.

As for `COC(=O)[C@H]1[C@@H](OC(=O)c2ccccc2)C[C@@H]2CC[C@H]1N2C` [(-)-Cocaine hydrochloride], the CC50 at 24 h is over 90 µM.

`OC[C@H](Cc1cccc(O)c1)[C@H](CO)Cc1cccc(O)c1` [(-)-Enterodiol] had a CC50 at 24 h of over 90 µM.

Turning to `Oc1cc(O)c2c(c1)O[C@H](c1ccc(O)c(O)c1)[C@H](O)C2` [(-)-Epicatechin], the CC50 at 24 h is over 50 µM.

For `CC(=O)Oc1ccc2c3c1O[C@H]1[C@@H](OC(C)=O)C=C[C@H]4[C@@H](C2)N(C)CC[C@@]341` [(-)-Heroin hydrochloride], the CC50 at 24 h was over 100 µM.

In turn, `CC1(C)C2=CCCC(C)(C)[C@]23CC[C@H]1C3` [(-)-Isolongifolene] yielded a CC50 at 24 h of over 90 µM.

The same data set, now with this note: rat, gh3-tre-luc cells, AC50 (uM) modified / 1000, Tox21_110001=Tox21_111800; viability, 1 nM T3 present, 24 h.
Turning to `CCOC(=O)/C=C(C)/C=C/C[C@@H](C)CCCC(C)C` [(7S)-Hydroprene], the CC50 at 24 h is over 50 µM.

Staying with this data set, now noted: rat, gh3-tre-luc cells, AC50 (uM) modified / 1000, Tox21_110001=Tox21_112826; viability, 1 nM T3 present, 24 h.
The molecule `C[C@H]1[C@@H]2Cc3ccc(O)cc3[C@@]1(C)CCN2C` [(+)-Metazocine fumarate (2:1)] displayed a CC50 at 24 h of over 200 µM.

The same data set, now with this note: rat, gh3-tre-luc cells, AC50 (uM) modified / 1000, Tox21_110001=Tox21_112828; viability, 1 nM T3 present, 24 h.
Take `CC[C@@H](O)C(C[C@@H](C)N(C)C)(c1ccccc1)c1ccccc1` [(+)-alpha-Methadol hydrochloride]: the CC50 at 24 h was over 100 µM.

Staying with this data set, now noted: rat, gh3-tre-luc cells, AC50 (uM) modified / 1000, Tox21_110001=Tox21_112834; viability, 1 nM T3 present, 24 h.
As for `C[C@@H]1[C@@H]2Cc3ccc(O)cc3[C@@]1(C)CCN2CCc1ccccc1` [(+)-Phenazocine hydrobromide], half-maximal cytotoxicity (CC50 at 24 h) was put at 67.4 µM.

Still in this data set, the particulars now being: rat, gh3-tre-luc cells, AC50 (uM) modified / 1000, Tox21_110001=Tox21_112851; viability, 1 nM T3 present, 24 h.
Regarding `COc1ccc(OC)c(C[C@H](C)N)c1` [(2S)-1-(2,5-Dimethoxyphenyl)propan-2-amine hydrogen chloride (1:1)], the CC50 at 24 h is over 100 µM.

Staying with this data set, now noted: rat, gh3-tre-luc cells, AC50 (uM) modified / 1000, Tox21_110001=Tox21_112855; viability, 1 nM T3 present, 24 h.
Take `C[C@@H]1[C@H]2Cc3ccc(O)cc3[C@]1(C)CCN2C` [(-)-Metazocine fumarate (1:1)]: the CC50 at 24 h was over 200 µM.

Still in this data set, the particulars now being: rat, gh3-tre-luc cells, AC50 (uM) modified / 1000, Tox21_110001=Tox21_112860; viability, 1 nM T3 present, 24 h.
Regarding `CCC(=O)O[C@](Cc1ccccc1)(c1ccccc1)[C@H](C)CN(C)C` [(2S,3R)-(+)-4-(Dimethylamino)-3-methyl-1,2-diphenyl-2-butanol propionate hydrochloride], the CC50 at 24 h worked out at 30.1 µM.

The data set is the same for the next values; noted with them: rat, gh3-tre-luc cells, AC50 (uM) modified / 1000, Tox21_110001=Tox21_112865; viability, 1 nM T3 present, 24 h.
On to `CCN[C@H](C)Cc1cccc(C(F)(F)F)c1` [(-)-Fenfluramine hydrochloride], for which the CC50 at 24 h stood at 52.7 µM.

The same data set, now with this note: rat, gh3-tre-luc cells, AC50 (uM) modified / 1000, Tox21_110001=Tox21_112876; viability, 1 nM T3 present, 24 h.
On to `CC(C)=CCN1CC[C@]2(C)c3cc(O)ccc3C[C@H]1[C@H]2C` [(+)-Pentazocine succinate], for which the CC50 at 24 h is over 90 µM.

Staying with this data set, now noted: rat, gh3-tre-luc cells, AC50 (uM) modified / 1000, Tox21_110001=Tox21_112877; viability, 1 nM T3 present, 24 h.
As to `CC(C)=CCN1CC[C@@]2(C)c3cc(O)ccc3C[C@@H]1[C@@H]2C` [(-)-Pentazocine succinate], the CC50 at 24 h is 34.4 µM.

The data set is the same for the next values; noted with them: rat, gh3-tre-luc cells, AC50 (uM) modified / 1000, Tox21_110001=Tox21_113513; viability, 1 nM T3 present, 24 h.
On to `C[C@@H]1[C@@H]2Cc3ccc(O)cc3[C@@]1(C)CCN2CC1CC1` [(+)-Cyclazocine], for which the CC50 at 24 h was over 50 µM.

Still in this data set, the particulars now being: rat, gh3-tre-luc cells, AC50 (uM) modified / 1000, Tox21_110001=Tox21_301066; viability, 1 nM T3 present, 24 h.
With `CCOC(=O)/C=C(C)/C=C/C[C@@H](C)CCCC(C)C` [(7S)-Hydroprene], the CC50 at 24 h was found to be 87.1 µM.
